From patent US7863315B2, “2-indolinone derivatives as selective histone deacetylase inhibitors” (Shenzhen Chipscreen Biosciences, Ltd., priority 2008, dated 2011)

What was measured:
Type in all cases: cell-based
[1] = tested on: HDAC4/5 (MEF2 reporter gene); experiment: HDAC subtype reporter gene assay, MEF-binding element (MEF2) luciferase in HeLa cells; details: Homo sapiens, M-HeLa, read-out: % of SAHA Response for HDAC4/5 at 10 μM (MEF2 reporter gene), 24 hours
Description: (§1) Measurement of inhibition of HDAC subtypes activity in cells by reporter gene assay: HDAC subtype selectivity inhibition assay of tested compounds was carried out by several reporter gene assays experiments. Briefly, HeLa cells were seeded in 96-well plates the day before transfection to give a confluence of 50-80%. Cells were transfected with one of reporter gene plasmids containing a promoter sequences or response elements upstream of a luciferase gene construct using FuGene6 transfection reagent according to the manufacturer's instructions (Roche). The promoters or response elements including p21-promoter, gdf11-promoter, MEF-binding element (MEF2), Nur77-promoter were fused upstream to the luciferase gene reporter construct. For normalizing the transfection efficiency, a GFP expression plasmid was cotransfected. Cells were allowed to express protein for 24 hours followed by addition of individual compounds or the vehicle (DMSO). 24 hours later, the cells were harvested and the luciferase assays were performed using the luciferase assay kit according to the manufacturer's instructions (Promega). To normalize the data from the luciferase assays, GFP activity from transfected cells was measured in a microtiter-plate reading fluorimeter capable of excitation at a wavelength at 485 nm and detection of emitted light at 527 nm.

[2] = tested on: HDAC3 (gdf11 reporter gene); experiment: HDAC subtype reporter gene assay, gdf11-promoter luciferase in HeLa cells; details: Homo sapiens, M-HeLa, read-out: % of SAHA Response for HDAC3 at 10 μM (gdf11 reporter gene), 24 hours
Description: as §1

[3] = tested on: HDAC7 (Nur77 reporter gene); experiment: HDAC subtype reporter gene assay, Nur77-promoter luciferase in HeLa cells; details: Homo sapiens, M-HeLa, read-out: % of SAHA Response for HDAC7 at 10 μM (Nur77 reporter gene), 24 hours
Description: as §1

[4] = tested on: HDAC class I (p21 reporter gene); experiment: HDAC subtype reporter gene assay, p21-promoter luciferase in HeLa cells; details: Homo sapiens, M-HeLa, read-out: % of SAHA Response for HDAC class I at 10 μM (p21 reporter gene), 24 hours
Description: as §1

Measured: Emax at 10 µM

O=C(CCCCCCC(=O)Nc1ccccc1)NO [SAHA, suberoylanilide hydroxamic acid, reference compound]
100%: all assays above
